PubChem BioAssay (NCI)
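The compound was tested at five concentrations on cells cultured in 96-well plates, with a 48-hour exposure period. TGI is the concentration that stops growth completely.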

Key:
Assay in all cases: DTP human tumour cell line panel, 48 h
786-0 renal = test system: 786-0 renal
A498 renal = test system: A498 renal
A549 NSCLC = test system: A549 NSCLC
ACHN renal = test system: ACHN renal
BT-549 breast = test system: BT-549 breast
CAKI-1 renal = test system: CAKI-1 renal
CCRF-CEM leukemia = test system: CCRF-CEM leukemia
COLO 205 colon = test system: COLO 205 colon
DU-145 prostate = test system: DU-145 prostate
EKVX NSCLC = test system: EKVX NSCLC
HCC-2998 colon = test system: HCC-2998 colon
HCT-116 colon = test system: HCT-116 colon
HCT-15 colon = test system: HCT-15 colon
HL-60(TB) leukemia = test system: HL-60(TB) leukemia
HOP-62 NSCLC = test system: HOP-62 NSCLC
HOP-92 NSCLC = test system: HOP-92 NSCLC
HS 578T breast = test system: HS 578T breast
HT29 colon = test system: HT29 colon
IGROV1 ovarian = test system: IGROV1 ovarian
K-562 leukemia = test system: K-562 leukemia
KM12 colon = test system: KM12 colon
LOX IMVI melanoma = test system: LOX IMVI melanoma
M14 melanoma = test system: M14 melanoma
MALME-3M melanoma = test system: MALME-3M melanoma
MCF7 breast = test system: MCF7 breast
MDA-MB-231 breast = test system: MDA-MB-231 breast
MDA-MB-435 = test system: MDA-MB-435
MDA-N = test system: MDA-N
MOLT-4 leukemia = test system: MOLT-4 leukemia
NCI-H226 lung = test system: NCI-H226 lung
NCI-H23 lung = test system: NCI-H23 lung
NCI-H460 lung = test system: NCI-H460 lung
NCI-H522 lung = test system: NCI-H522 lung
NCI/ADR-RES ovarian = test system: NCI/ADR-RES ovarian
OVCAR-3 ovarian = test system: OVCAR-3 ovarian
OVCAR-4 ovarian = test system: OVCAR-4 ovarian
OVCAR-5 ovarian = test system: OVCAR-5 ovarian
OVCAR-8 ovarian = test system: OVCAR-8 ovarian
PC-3 prostate = test system: PC-3 prostate
RPMI-8226 leukemia = test system: RPMI-8226 leukemia
RXF 393 renal = test system: RXF 393 renal
SF-268 CNS = test system: SF-268 CNS
SF-295 CNS = test system: SF-295 CNS
SK-MEL-2 melanoma = test system: SK-MEL-2 melanoma
SK-MEL-28 melanoma = test system: SK-MEL-28 melanoma
SK-MEL-5 melanoma = test system: SK-MEL-5 melanoma
SK-OV-3 ovarian = test system: SK-OV-3 ovarian
SN12C renal = test system: SN12C renal
SNB-19 CNS = test system: SNB-19 CNS
SNB-75 CNS = test system: SNB-75 CNS
SR leukemia = test system: SR leukemia
SW-620 colon = test system: SW-620 colon
T-47D breast = test system: T-47D breast
U251 CNS = test system: U251 CNS
UACC-257 melanoma = test system: UACC-257 melanoma
UACC-62 melanoma = test system: UACC-62 melanoma
UO-31 renal = test system: UO-31 renal
SF-539 CNS = test system: SF-539 CNS
TK-10 renal = test system: TK-10 renal

SMILES: CC1C=C(NCC2(CO)CCC2)NC(N)=N1 (centres undefined)
- TGI (786-0 renal): > 100 µM
- TGI (A498 renal): > 100 µM
- TGI (A549 NSCLC): > 100 µM
- TGI (ACHN renal): > 100 µM
- TGI (BT-549 breast): > 100 µM
- TGI (CAKI-1 renal): > 100 µM
- TGI (CCRF-CEM leukemia): > 100 µM
- TGI (COLO 205 colon): > 100 µM
- TGI (DU-145 prostate): > 100 µM
- TGI (EKVX NSCLC): > 100 µM
- TGI (HCC-2998 colon): > 100 µM
- TGI (HCT-116 colon): > 100 µM
- TGI (HCT-15 colon): > 100 µM
- TGI (HL-60(TB) leukemia): > 100000 nM
- TGI (HOP-62 NSCLC): > 100 µM
- TGI (HOP-92 NSCLC): > 100 µM
- TGI (HS 578T breast): > 100 µM
- TGI (HT29 colon): > 100 µM
- TGI (IGROV1 ovarian): > 100 µM
- TGI (K-562 leukemia): > 100 µM
- TGI (KM12 colon): > 100 µM
- TGI (LOX IMVI melanoma): > 100 µM
- TGI (M14 melanoma): > 100 µM
- TGI (MALME-3M melanoma): > 100 µM
- TGI (MCF7 breast): > 100 µM
- TGI (MDA-MB-231 breast): > 100 µM
- TGI (MDA-MB-435): > 100 µM
- TGI (MDA-N): > 100 µM
- TGI (MOLT-4 leukemia): > 100 µM
- TGI (NCI-H226 lung): > 100 µM
- TGI (NCI-H23 lung): > 100 µM
- TGI (NCI-H460 lung): > 100 µM
- TGI (NCI-H522 lung): > 100 µM
- TGI (NCI/ADR-RES ovarian): > 100 µM
- TGI (OVCAR-3 ovarian): > 100 µM
- TGI (OVCAR-4 ovarian): > 100 µM
- TGI (OVCAR-5 ovarian): > 100 µM
- TGI (OVCAR-8 ovarian): > 100 µM
- TGI (PC-3 prostate): > 100 µM
- TGI (RPMI-8226 leukemia): > 100 µM
- TGI (RXF 393 renal): > 100 µM
- TGI (SF-268 CNS): > 100 µM
- TGI (SF-295 CNS): > 100 µM
- TGI (SK-MEL-2 melanoma): > 100 µM
- TGI (SK-MEL-28 melanoma): > 100 µM
- TGI (SK-MEL-5 melanoma): > 100 µM
- TGI (SK-OV-3 ovarian): > 100 µM
- TGI (SN12C renal): > 100 µM
- TGI (SNB-19 CNS): > 100 µM
- TGI (SNB-75 CNS): > 100 µM
- TGI (SR leukemia): > 100 µM
- TGI (SW-620 colon): > 100 µM
- TGI (T-47D breast): > 100 µM
- TGI (U251 CNS): > 100 µM
- TGI (UACC-257 melanoma): > 100 µM
- TGI (UACC-62 melanoma): > 100 µM
- TGI (UO-31 renal): > 100 µM

SMILES: COc1cccc2c1C(=O)c1ccc3cc(CO)cc(O)c3c1C2=O
- TGI (786-0 renal): 4.24 µM
- TGI (A498 renal): 9.62 µM
- TGI (A549 NSCLC): 2.76 µM
- TGI (ACHN renal): 3.7 µM
- TGI (BT-549 breast): 6.31 µM
- TGI (CAKI-1 renal): 7.18 µM
- TGI (CCRF-CEM leukemia): 2.02 µM
- TGI (COLO 205 colon): 3.32 µM
- TGI (DU-145 prostate): 3.31 µM
- TGI (EKVX NSCLC): 4.89 µM
- TGI (HCT-116 colon): 0.787 µM
- TGI (HCT-15 colon): 1.17 µM
- TGI (HL-60(TB) leukemia): 461 nM
- TGI (HOP-62 NSCLC): 6.33 µM
- TGI (HOP-92 NSCLC): 2.84 µM
- TGI (HS 578T breast): 9.59 µM
- TGI (HT29 colon): 3.9 µM
- TGI (IGROV1 ovarian): 3.33 µM
- TGI (K-562 leukemia): 3.74 µM
- TGI (KM12 colon): 6.14 µM
- TGI (LOX IMVI melanoma): 5.96 µM
- TGI (M14 melanoma): 1.68 µM
- TGI (MALME-3M melanoma): 0.202 µM
- TGI (MCF7 breast): 1.56 µM
- TGI (MDA-MB-231 breast): 2.58 µM
- TGI (MDA-MB-435): 0.359 µM
- TGI (MDA-N): 0.352 µM
- TGI (MOLT-4 leukemia): 4.22 µM
- TGI (NCI-H226 lung): 5.54 µM
- TGI (NCI-H23 lung): 1.18 µM
- TGI (NCI-H460 lung): 1.17 µM
- TGI (NCI-H522 lung): 5.89 µM
- TGI (NCI/ADR-RES ovarian): 2.28 µM
- TGI (OVCAR-3 ovarian): 0.497 µM
- TGI (OVCAR-4 ovarian): 2.03 µM
- TGI (OVCAR-5 ovarian): 3.92 µM
- TGI (OVCAR-8 ovarian): 2.22 µM
- TGI (PC-3 prostate): 1.17 µM
- TGI (RPMI-8226 leukemia): 5.1 µM
- TGI (RXF 393 renal): 7.09 µM
- TGI (SF-268 CNS): 5.18 µM
- TGI (SF-295 CNS): 7.44 µM
- TGI (SF-539 CNS): 1.44 µM
- TGI (SK-MEL-2 melanoma): 2.99 µM
- TGI (SK-MEL-28 melanoma): 5.61 µM
- TGI (SK-MEL-5 melanoma): 0.508 µM
- TGI (SK-OV-3 ovarian): 8.61 µM
- TGI (SN12C renal): 2.86 µM
- TGI (SNB-19 CNS): 5.85 µM
- TGI (SNB-75 CNS): 9.4 µM
- TGI (SR leukemia): 1.31 µM
- TGI (SW-620 colon): 1.2 µM
- TGI (T-47D breast): 4.96 µM
- TGI (TK-10 renal): 8.43 µM
- TGI (U251 CNS): 5.41 µM
- TGI (UACC-257 melanoma): 0.412 µM
- TGI (UACC-62 melanoma): 1 µM
- TGI (UO-31 renal): 7.32 µM

SMILES: C=CC1(CBr)CCC(C(C)(C)Br)O1 (centres undefined)
- TGI (786-0 renal): 6.56 µM
- TGI (A498 renal): 33.5 µM
- TGI (A549 NSCLC): 33.9 µM
- TGI (ACHN renal): 30.2 µM
- TGI (BT-549 breast): 30.4 µM
- TGI (CAKI-1 renal): 16.5 µM
- TGI (CCRF-CEM leukemia): 6.51 µM
- TGI (COLO 205 colon): 20.6 µM
- TGI (DU-145 prostate): 25.7 µM
- TGI (EKVX NSCLC): 32.1 µM
- TGI (HCC-2998 colon): 30.5 µM
- TGI (HCT-116 colon): 18.5 µM
- TGI (HCT-15 colon): 23.8 µM
- TGI (HL-60(TB) leukemia): 893 nM
- TGI (HOP-62 NSCLC): 30 µM
- TGI (HOP-92 NSCLC): 28.6 µM
- TGI (HS 578T breast): 39.6 µM
- TGI (HT29 colon): 14.4 µM
- TGI (IGROV1 ovarian): 22.7 µM
- TGI (K-562 leukemia): > 25.9 µM
- TGI (KM12 colon): 26.1 µM
- TGI (LOX IMVI melanoma): 4.34 µM
- TGI (M14 melanoma): 27.7 µM
- TGI (MALME-3M melanoma): 27.8 µM
- TGI (MCF7 breast): 34.1 µM
- TGI (MDA-MB-231 breast): 28.3 µM
- TGI (MDA-MB-435): 26.6 µM
- TGI (MDA-N): 22.7 µM
- TGI (MOLT-4 leukemia): 7.06 µM
- TGI (NCI-H226 lung): 46.7 µM
- TGI (NCI-H23 lung): 19.9 µM
- TGI (NCI-H460 lung): 27.7 µM
- TGI (NCI-H522 lung): 7.14 µM
- TGI (NCI/ADR-RES ovarian): 30.7 µM
- TGI (OVCAR-3 ovarian): 22.6 µM
- TGI (OVCAR-4 ovarian): 28 µM
- TGI (OVCAR-5 ovarian): 27.9 µM
- TGI (OVCAR-8 ovarian): 9.45 µM
- TGI (PC-3 prostate): 24.5 µM
- TGI (RPMI-8226 leukemia): 6.11 µM
- TGI (RXF 393 renal): 27.3 µM
- TGI (SF-268 CNS): 38.2 µM
- TGI (SF-295 CNS): 24.8 µM
- TGI (SF-539 CNS): 30.8 µM
- TGI (SK-MEL-2 melanoma): 28.1 µM
- TGI (SK-MEL-28 melanoma): 23.9 µM
- TGI (SK-MEL-5 melanoma): 23.2 µM
- TGI (SK-OV-3 ovarian): 29 µM
- TGI (SN12C renal): 33.1 µM
- TGI (SNB-19 CNS): 30.1 µM
- TGI (SNB-75 CNS): 20.4 µM
- TGI (SR leukemia): 8.58 µM
- TGI (SW-620 colon): 10.5 µM
- TGI (T-47D breast): 15.5 µM
- TGI (TK-10 renal): 28.5 µM
- TGI (U251 CNS): 15.9 µM
- TGI (UACC-257 melanoma): 28.9 µM
- TGI (UACC-62 melanoma): 22.3 µM
- TGI (UO-31 renal): 25.7 µM
